Molecules are shown by their SMILES.

c-Met kinase (h-Met; histidine-tagged c-Met catalytic domain fusion protein), sequence (P08581 1078-1345): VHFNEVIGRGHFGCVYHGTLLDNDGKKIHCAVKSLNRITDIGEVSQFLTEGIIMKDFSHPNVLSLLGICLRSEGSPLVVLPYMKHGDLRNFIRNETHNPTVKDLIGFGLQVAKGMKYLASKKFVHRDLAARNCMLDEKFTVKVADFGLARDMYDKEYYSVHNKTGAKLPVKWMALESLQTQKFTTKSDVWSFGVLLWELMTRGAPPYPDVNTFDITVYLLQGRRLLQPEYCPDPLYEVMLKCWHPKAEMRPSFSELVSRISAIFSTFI

This experiment addresses c-Met kinase (h-Met; histidine-tagged c-Met catalytic domain fusion protein) (Homo sapiens (Human), UniProt P08581). Nature of the experiment: In Vitro c-Met Kinase Enzyme Assays. It is filed as biochemical. As to conditions: phosphorylation of poly Glu-Tyr, 5 μM ATP, 25 minutes at 30° C. As to the method:
Compounds were screened in vitro for their ability to inhibit c-Met kinase activity. […] Briefly, histidine-tagged c-Met catalytic domain fusion protein (Invitrogen, #PV3143) was used for the assay. […] The reaction lasted for 25 minutes at 30° C. After the reaction was completed, the contents of the plates was discarded. Plates were then washed with TBS-T (250 μL/well, 5×) and then blocked with TBS-T containing 1% BSA for 2 hours. The contents of the plates was discarded, and 100 μL (per well) of peroxidase-labeled anti-phospho-tyrosine antibody (Sigma, #A5964) diluted (1:60,000) in 1% BSA containing TBS-T were then added and incubated for 1 hour. Plates were washed with TBS-T ([…], 5×) and followed by the color reaction using 100 μL (1:1 mixture) of H2O2 and tetramethylbenzidine (R&D Systems, #DY999). The reaction was stopped in minutes with 100 μL of 2 N H2SO4. The optical density was measured immediately using a microplate reader at 450 nm with wavelength correction at 540 nm. IC50 values were calculated with the GraphPad Prism software. The linear range (i.e., the time period over which the rate remained equivalent to the initial rate) was determined for the kinase and IC50 determinations were performed within this range.
In turn, `COC1CCN(C(=O)C(C)NC(=O)c2ccc(-c3cnc4ncc(C5(c6ccc7ncccc7c6)CC5)n4c3)cc2F)C1` (single isomer, unassigned) [Example 201] yielded an IC50 below 500 nM. As to `N#CC1CCN(C(=O)c2ccc(-c3cnc4ncc(C5(c6ccc7ncccc7c6)CC5)n4c3)cc2)C1` (stereo in doubt) [Example 52, (3R)-1-{4-[3-(1-Quinolin-6-ylcyclopropyl)imidazo[1,2-a]pyrimidin-6-yl]benzoyl}pyrrolidine-3-carbonitrile], the IC50 is below 500 nM.

In the case of `COc1ccc(Cc2cnc3ncc(-c4ccc(F)cc4)nn23)cc1` [Example 1], the IC50 is below 500 nM. As for `COc1ccc(C2(c3cnc4ncc(-c5ccc(F)cc5)nn34)CC2)cc1` [Example 2, 2-(4-Fluorophenyl)-7-[1-(4-methoxyphenyl)cyclopropyl]imidazo[1,2-b]-[1,2,4]-triazine], the figure is below 500 nM; as for `Fc1ccc(-c2cnc3ncc(C4(c5ccc6ncccc6c5)CC4)n3n2)cc1` [Example 3, 6-(1-(2-(4-Fluorophenyl)imidazo[1,2-b][1,2,4]-triazin-7-yl)cyclopropyl)quinoline], below 500 nM; as for `COc1ccc(Cc2cnc3ncc(-c4ccc(F)cc4)cn23)cc1` [Example 4, 6-(4-Fluorophenyl)-3-(4-methoxybenzyl)imidazo[1,2-a]pyrimidine], below 500 nM. Consider `COc1ccc(C2(c3cnc4ncc(-c5ccc(F)cc5)cn34)CC2)cc1` [Example 5, 6-(4-Fluorophenyl)-3-(1-(4-methoxyphenyl)cyclopropyl)imidazo[1,2-a]pyrimidine], for which the IC50 is below 500 nM. In the case of `Fc1ccc(-c2cnc3ncc(C4(c5ccc6ncccc6c5)CC4)n3c2)cc1` [Example 6, 6-(1-(6-(4-Fluorophenyl)imidazo[1,2-a]pyrimidin-3-yl)cyclopropyl)quinoline], the IC50 was below 500 nM.

For `COc1ccc(Sc2cnc3ncc(-c4ccc(Br)c(F)c4)nn23)cc1` [Example 8, 2-(4-Bromo-3-fluorophenyl)-7-[(4-methoxyphenyl)thio]imidazo[1,2-b][1,2,4]triazine], the IC50 was below 500 nM. As to `CNC(=O)c1ccc(-c2cnc3ncc(Sc4ccc(OC)cc4)n3c2)cc1F` [Example 9, 2-Fluoro-4-(3-[(4-methoxyphenyl)thio]imidazo[1,2-a]pyrimidin-6-yl)-N-methylbenzamide], the IC50 was below 500 nM. For `CNC(=O)c1ccc(-c2cnc3ncc(Sc4ccc(OC)cc4)n3c2)cc1Cl` [Example 10, 2-chloro-4-3-[(4-methoxyphenyl)thio]imidazo[1,2-a]pyrimidin-6-yl-N-methylbenzamide], the IC50 was below 500 nM. The molecule `CNC(=O)c1ccc(-c2cnc3ncc(Sc4ccc5ncccc5c4)n3c2)cc1F` [Example 11, 2-Fluoro-N-methyl-4-[3-(quinolin-6-ylthio)imidazo[1,2-a]pyrimidin-6-yl]benzamide] returned an IC50 below 500 nM. For `CNC(=O)c1ccc(-c2cnc3ncc(Sc4ccc5ncccc5c4)n3c2)cc1Cl` [Example 12, 2-chloro-N-methyl-4-[3-(quinolin-6-ylthio)imidazo[1,2-a]pyrimidin-6-yl]benzamide], the IC50 was below 500 nM. `COC(=O)c1ccc(-c2cnc3ncc(Sc4ccc5ncccc5c4)n3n2)cc1F` [Example 13, Methyl 2-fluoro-4-[7-(quinolin-6-ylthio)imidazo[1,2-b][1,2,3]triazin-2-yl]benzoate]: the IC50 was below 500 nM.

For the molecule `COc1ccc(Oc2cnc3ncc(-c4ccc(Br)c(F)c4)nn23)cc1` [Example 14, 2-(4-Bromo-3-fluorophenyl)-7-(4-methoxyphenoxy)imidazo[1,2-b][1,2,4]triazine], the IC50 is below 500 nM. Consider `COc1ccc(Oc2cnc3ncc(-n4cc(C)cn4)cn23)cc1` [Example 15, 3-(4-Methoxyphenoxy)-6-(4-methyl-1H-pyrazol-1-yl)imidazo[1,2-a]pyrimidine], for which the IC50 was below 500 nM.

The molecule `COc1ccc(Oc2cnc3ncc(-c4ccc(Br)cc4)cn23)cc1` [Example 16, 6-(4-Bromophenyl)-3-(4-methoxyphenoxy)imidazo[1,2-a]pyrimidine] registered an IC50 below 3000 nM. `CNC(=O)c1ccc(-c2cnc3ncc(Oc4ccc5ncccc5c4)n3c2)cc1Cl` [Example 17, 2-chloro-N-methyl-4-[3-(quinolin-6-yloxy)imidazo[1,2-a]pyrimidin-6-yl]benzamide] yielded an IC50 below 500 nM.

Take `CNC(=O)c1ccc(-c2cnc3ncc(C4(c5ccc6ncccc6c5)CC4)n3c2)cc1F` [Example 18, 2-Fluoro-N-methyl-4-[3-(1-quinolin-6-ylcyclopropyl)imidazo[1,2-a]pyrimidin-6-yl]benzamide]: the IC50 is below 500 nM. As for `COc1ccc(Sc2cnc3ncc(-c4ccc(Br)cc4)cn23)cc1` [Example 19, 6-(4-bromophenyl)-3-[(4-methoxyphenyl)thio]imidazo[1,2-a]pyrimidine], the figure is below 500 nM; as for `COc1ccc(Sc2cnc3ncc(-c4ccc(F)cc4)nn23)cc1` [Example 20, 2-(4-fluorophenyl)-7-[(4-methoxyphenyl)thio]imidazo[1,2-b][1,2,4]triazine], below 500 nM. As for `CC(Oc1ccc(-c2cnc3ncc(C4(c5ccc6ncccc6c5)CC4)n3c2)cc1F)C(=O)N1CCCC1` (centres unmarked) [Example 21, 6-(1-{6-[3-Fluoro-4-(1-methyl-2-oxo-2-pyrrolidin-1-ylethoxy)phenyl]imidazo[1,2-a]pyrimidin-3-yl}cyclopropyl)quinoline], the IC50 is below 500 nM.

`c1cnc2ccc(C3(c4cnc5ncc(-n6cccn6)cn45)CC3)cc2c1` [Example 22, 6-{1-[6-(1H-Pyrazol-1-yl)imidazo[1,2-a]pyrimidin-3-yl]cyclopropyl}quinoline] returned a half-inhibitory concentration (IC50) below 500 nM.

In turn, `Cc1cnn(-c2cnc3ncc(C4(c5ccc6ncccc6c5)CC4)n3c2)c1` [Example 23, 6-{1-[6-(4-Methyl-1H-pyrazol-1-yl)imidazo[1,2-a]pyrimidin-3-yl]cyclopropyl}quinoline] displayed an IC50 below 500 nM. The molecule `CN(C)C(=O)c1cnn(-c2cnc3ncc(C4(c5ccc6ncccc6c5)CC4)n3c2)c1` [Example 24, N,N-Dimethyl-1-[3-(1-quinolin-6-ylcyclopropyl)imidazo[1,2-a]pyrimidin-6-yl]-1H-pyrazole-4-carboxamide] came in with an IC50 below 500 nM.

Molecule `Cc1csc(C(C)NC(=O)c2cnn(-c3cnc4ncc(C5(c6ccc7ncccc7c6)CC5)n4c3)c2)n1` (centres unmarked) [Example 25, N-[1-(4-Methyl-1,3-thiazol-2-yl)ethyl]-1-[3-(1-quinolin-6-ylcyclopropyl)imidazo[1,2-a]pyrimidin-6-yl]-1H-pyrazole-4-carboxamide] returned an IC50 below 500 nM. As for `O=C(NC1CCCCC1)c1cnc2ncc(C3(c4ccc5ncccc5c4)CC3)n2c1` [Example 26, N-Cyclohexyl-3-(1-quinolin-6-ylcyclopropyl)imidazo[1,2-a]pyrimidine-6-carboxamide], the 50% inhibitory concentration (IC50) was below 500 nM. In turn, `O=C(NCC1CCCO1)c1cnc2ncc(C3(c4ccc5ncccc5c4)CC3)n2c1` (centres unmarked) [Example 27, 3-(1-Quinolin-6-ylcyclopropyl)-N-(tetrahydrofuran-2-ylmethyl)imidazo[1,2-a]pyrimidine-6-carboxamide] registered an IC50 below 500 nM. `O=C(NC1CCC1)c1ccc(-c2cnc3ncc(C4(c5ccc6ncccc6c5)CC4)n3c2)cc1` [Example 28, N-Cyclobutyl-4-[3-(1-quinolin-6-ylcyclopropyl)imidazo[1,2-a]pyrimidin-6-yl]benzamide] yielded an IC50 below 500 nM. In turn, `O=C(c1ccc(-c2cnc3ncc(C4(c5ccc6ncccc6c5)CC4)n3c2)cc1)N1CCC1` [Example 29, 6-(1-{6-[4-(Azetidin-1-ylcarbonyl)phenyl]imidazo[1,2-a]pyrimidin-3-yl}cyclopropyl)quinoline] registered an IC50 below 500 nM. The molecule `CN(C)C(=O)c1ccc(-c2cnc3ncc(C4(c5ccc6ncccc6c5)CC4)n3c2)cc1` [Example 30, N,N-Dimethyl-4-[3-(1-quinolin-6-ylcyclopropyl)imidazo[1,2-a]pyrimidin-6-yl]benzamide] registered an IC50 below 500 nM. `O=C(NCC1CCCO1)c1ccc(-c2cnc3ncc(C4(c5ccc6ncccc6c5)CC4)n3c2)cc1` (centres unmarked) [Example 31, 4-[3-(1-Quinolin-6-ylcyclopropyl)imidazo[1,2-a]pyrimidin-6-yl]-N-(tetrahydrofuran-2-ylmethyl)benzamide]: the IC50 was below 500 nM. Turning to `CN(C(=O)c1ccc(-c2cnc3ncc(C4(c5ccc6ncccc6c5)CC4)n3c2)cc1)C1CCN(Cc2ccccc2)C1` (centres unmarked) [Example 32, N-(1-Benzylpyrrolidin-3-yl)-N-methyl-4-[3-(1-quinolin-6-ylcyclopropyl)imidazo[1,2-a]pyrimidin-6-yl]benzamide], the IC50 was below 500 nM. To `O=C(NC1CCN(c2ccccn2)CC1)c1ccc(-c2cnc3ncc(C4(c5ccc6ncccc6c5)CC4)n3c2)cc1` [Example 33, N-(1-Pyridin-2-ylpiperidin-4-yl)-4-[3-(1-quinolin-6-ylcyclopropyl)imidazo[1,2-a]pyrimidin-6-yl]benzamide] belongs below 500 nM; to `CC(NC(=O)c1ccc(-c2cnc3ncc(C4(c5ccc6ncccc6c5)CC4)n3c2)cc1)c1ccccn1` (centres unmarked) [Example 34, N-(1-Pyridin-2-ylethyl)-4-[3-(1-quinolin-6-ylcyclopropyl)imidazo[1,2-a]pyrimidin-6-yl]benzamide], below 500 nM.

By IC50 is commonly meant the concentration needed to halve the response being measured. Low readings indicate inhibition by little substance, high ones a need for much substance.
